Laboratory results taken from US12440528B2, “Methods of treating ovarian cancer with hemp extract” (Ecofibre USA Inc., priority 2021, dated 2025).
Values after ≈ are worked out from the molar mass of the structure shown. Read-outs that look alike come from different tables or passages of the source.

How the values were obtained:
[1] = test system: patient derived organoids; assay type: cell-based, human; details: for % Cell Death: organoid cell death; for response of the patient's organoid: organoid of the chemoresistant endometrial cancer patient
Text: A few of the above drug products, as well as additional drugs were tried for response to patient derived organoids.

[2] = test system: patient derived organoids (PD3D Cell Culture); assay: Calculated IC50 in PD3D cell culture of the patient derived organoids; assay type: cell-based, human
[3] = test system: patient derived endometrial cancer organoids; assay: Carboplatin alone or with Cannabis extract, endometrial cancer organoids; assay type: cell-based, human
Text: To determine if this premise is conserved over different chemotherapeutic agents, Applicant repeated the tests replacing paclitaxel with carboplatin toward a related gynecological cancer cell, endometrial cancer cells. The surprising findings with paclitaxel were further confirmed by testing the impacts of carboplatin alone or carboplatin with a Cannabis extract.
Finally, with a dose of 250 μm/mL carboplatin, a 2.5× in the dose from the […] test, all of the combined therapeutics with carboplatin and Cannabis extract are below 10% viability, while the carboplatin alone remains at above 30%.

[4] = test system: patient derived chemosensitive and chemoresistant ovarian cancer organoids; assay: Four Cannabis extracts on newly obtained ovarian cancer organoids, viability; assay type: cell-based, human
Method: Applicant then tested several different Cannabis extracts at varying concentrations on newly obtained patient derived chemosensitive and chemoresistant ovarian cancer organoids. […] Here, the BSHE continued to work at virtually the same level as prior tests, even though these organoids were generated from different patients than all prior tests. […] However, what remains constant is that at or about 10 μg/mL, virtually all patient derived organoid samples begin to or reach zero viability.

[5] = test system: cancer organoid; assay: Effect of pH of the Cannabis extract on organoid viability; assay type: cell-based, human; details: pH 8
Method: A further interesting observation was determined by the impacts of pH on the efficacy of the Cannabis extract on organoid data. […] In each case, the control vehicle, buffered to the same pH was ineffective in killing the cells at all, and thus was not depicted. […] However, pH of 12, and certainly of 14 are highly corrosive, alkaline concentrations and are not suitable for therapeutic use.
Accordingly, when providing the Cannabis extract for therapeutic administration, […] yields an unexpected increase in efficacy.

[6] = chronic use, humans; cited from earlier work
[7] = target: P-glycoprotein (Homo sapiens, UniProt P08183); details: in vitro; cited from earlier work
P-glycoprotein, sequence (P08183 whole entry): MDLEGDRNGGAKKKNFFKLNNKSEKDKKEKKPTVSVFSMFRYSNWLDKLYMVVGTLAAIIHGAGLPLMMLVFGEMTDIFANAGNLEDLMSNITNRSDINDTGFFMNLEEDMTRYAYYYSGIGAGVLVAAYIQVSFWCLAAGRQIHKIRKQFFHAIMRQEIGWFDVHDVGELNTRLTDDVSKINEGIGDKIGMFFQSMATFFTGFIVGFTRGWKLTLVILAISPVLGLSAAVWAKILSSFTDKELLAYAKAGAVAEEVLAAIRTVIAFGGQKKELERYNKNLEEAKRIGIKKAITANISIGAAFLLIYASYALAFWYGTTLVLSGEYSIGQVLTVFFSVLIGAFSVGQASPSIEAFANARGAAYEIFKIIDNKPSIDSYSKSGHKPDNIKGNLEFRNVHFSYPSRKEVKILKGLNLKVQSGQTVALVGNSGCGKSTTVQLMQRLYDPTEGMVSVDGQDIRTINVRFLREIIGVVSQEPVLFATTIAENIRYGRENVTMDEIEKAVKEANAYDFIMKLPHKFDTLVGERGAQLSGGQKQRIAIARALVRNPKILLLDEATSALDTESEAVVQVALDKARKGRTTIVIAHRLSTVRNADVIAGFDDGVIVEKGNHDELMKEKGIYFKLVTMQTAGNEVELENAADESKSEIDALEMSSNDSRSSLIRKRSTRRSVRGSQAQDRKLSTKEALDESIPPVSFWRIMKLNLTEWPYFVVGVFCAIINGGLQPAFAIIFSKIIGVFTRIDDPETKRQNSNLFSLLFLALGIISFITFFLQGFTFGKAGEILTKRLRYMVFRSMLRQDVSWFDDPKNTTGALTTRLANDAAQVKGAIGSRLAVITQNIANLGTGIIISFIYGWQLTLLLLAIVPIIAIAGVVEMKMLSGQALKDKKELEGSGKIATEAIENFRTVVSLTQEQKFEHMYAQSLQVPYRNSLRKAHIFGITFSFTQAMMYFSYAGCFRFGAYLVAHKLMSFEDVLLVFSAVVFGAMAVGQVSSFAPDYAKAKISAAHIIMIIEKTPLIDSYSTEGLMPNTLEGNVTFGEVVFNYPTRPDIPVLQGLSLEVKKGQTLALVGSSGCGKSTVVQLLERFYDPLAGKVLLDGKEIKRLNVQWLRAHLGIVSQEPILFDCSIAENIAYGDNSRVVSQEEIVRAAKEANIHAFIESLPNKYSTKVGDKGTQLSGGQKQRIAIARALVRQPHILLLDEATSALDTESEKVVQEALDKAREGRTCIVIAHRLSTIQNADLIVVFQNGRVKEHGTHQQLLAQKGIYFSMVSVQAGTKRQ

[8] = cited from earlier work
[9] = test system: patient derived endometrial cancer cells; assay type: in vivo, mice; details: paclitaxel alone 10 mg/kg (30.007 mg/m^2), 21 days
Method: Human patient cells from endometrial cancer were injected subcutaneously into female NOD/SCID gamma mice after resuspending in 100 μL solution. […] All treatment group mice were kept alive for up to 10 weeks after drug injection or until the tumor volume grows bigger than 2500 mm^3.

[10] = test system: chemosensitive ovarian cancer cells, derived from ascites cells; details: for viability: human, 14 days
[11] = test system: chemoresistant ovarian cancer organoid
Method: To culture patient-derived organoids, 2-3×10^3 cells were plated in a pre-warmed (37° C.) 96-well plate in 10 mL of Matrigel (5%FBS AD+++ medium) per well. Individual patient cell organoid was cultured separately in different plates. Individual patient cells were handled separately to reduce the chance of cross-contamination. After mixing cells with Matrigel, 10 mL droplets were placed in wells and put in a 37° C. incubator with 5% CO2 for 30 minutes. Upon solidification of the Matrigel droplet with cells inside, the plate was placed inside a sterile hood and immersed the Matrigel droplet in 200 μL of organoid growth media. Cells were allowed to grow into mature organoids for 14 days. […] All treatments were done in triplicate, including vehicle-only controls (Dimethyl sulfoxide in culture medium at the highest concentration used for drug treatments).
To assess the cell viability in organoids after treatments, CellTiter-Glo® Luminescent Assay (Promega #G7572) was used. In brief, on day 14 of organoid culture, the matrigel droplet in each well with organoid inside was immersed in 100 μL of fresh growth media and 100 μL of CellTiter-Glo® reagent following the manufacturer's guideline. Blank wells containing only media and CellTiter Glo® reagent (no cells) were also included in each plate. Then the plates were put on a shaker @ 110 rpm at room temperature for 5 minutes to induce cell lysis, followed by 25 minutes at room temperature to stabilize the luminescent signal. Each step after adding the CellTiter Glo® reagent was performed in the dark. Luminescence was measured on a FLUOstar OPTIMA plate reader (BMG Lab technologies, Offenburg, Germany). Analysis was performed by normalizing treatment values to the vehicle control and plotting them as a percentage of the vehicle control. Drug IC50 values were determined by inhibitor vs normalized response-variable slope using least squares regression in Graphpad Prism 9.

5-Fluorouaracil/Capecitabine
% Cell Death [1]: 61%

O=C1O[C@H]([C@@H](O)CO)C(O)=C1O [Ascorbic Acid]
Calculated IC50 PD3D Cell Culture [2]: Not Reached

C=C(C)[C@@H]1CCC(C)=C[C@H]1c1c(O)cc(CCCCC)cc1O [CBD isolate, cannabidiol]
IC50 ([3]; Homo sapiens, extract alone): 3 µg/mL (≈ 9.54 µM)
viability ([3]; carboplatin 50 μm/mL with IC50 amount of extract): ~37%
improvement in viability on adding the extract ([3]; carboplatin 100 μm/mL plus IC50 amount of extract): 32%
viability at 15 µg/mL ([4]; Homo sapiens, 15 μg/mL, all samples): 0%
viability at 20 µg/mL ([4]; Homo sapiens, 20 μg/mL, all samples): 0%
killing of the organoids compared with native pH [5]: virtually no change

C=C(C)[C@@H]1CCC(C)=C[C@H]1c1c(O)cc(CCCCC)cc1O [CBD, cannabidiol]
doses established as well tolerated [6]: up to 1,500 mg/day
inhibition of P-glycoprotein-mediated drug transport [7]: significantly inhibits
response of the patient's organoid [1]: significant response
peak plasma concentrations of CBD ([8]; coadministration of rifampicin (a CYP3A4 inducer)): significantly reduced
peak plasma drug concentrations ([8]; coadministration of the CYP3A4 inhibitor ketoconazole): nearly doubled
time of maximum plasma concentration ([8]; oral-mucosal or sublingual delivery): 1.6 h
time of maximum plasma concentration, delayed ([8]; orally delivered, some individuals): up to 6 hours
time of maximum plasma concentration ([8]; orally delivered): 2.5 to 5 h

C=C(C)[C@@H]1CCC(C)=C[C@H]1c1c(O)cc(CCCCC)c(C(=O)O)c1O [CBDA, cannabidiolic acid]
viability ([4]; 50 μg/mL): nearing zero viability

CO[C@H]1C(=O)[C@]2(C)[C@@H](OC)C[C@H]3OC[C@@]3(OC(C)=O)[C@H]2[C@H](OC(=O)c2ccccc2)[C@]2(O)C[C@H](OC(=O)[C@H](O)[C@@H](NC(=O)OC(C)(C)C)c3ccccc3)C(C)=C1C2(C)C [Cabazitaxel]
% Cell Death [1]: 37%

N.N.O=C([O-])C1(C(=O)[O-])CCC1.[Pt+2] [Carboplatin]
viability ([3]; carboplatin alone 50 μg/mL): about 50%
viability ([3]; carboplatin alone 100 μg/mL): about 50%
total drop in viability on increasing the dose by 5× ([3]; carboplatin alone 50 to 250 μm/mL): about 17%
% Cell Death [1]: 30%

N.N.[Cl][Pt][Cl] [Cisplatin]
% Cell Death [1]: 36%

O=C(c1ccc(F)c(F)c1Nc1ccc(I)cc1F)N1CC(O)([C@@H]2CCCCN2)C1 [Cobimetinib]
Calculated IC50 PD3D Cell Culture [2]: Not Reached

C[C@@H](Oc1cc(-c2cnn(C3CCNCC3)c2)cnc1N)c1c(Cl)ccc(F)c1Cl [Crizotinib]
Calculated IC50 PD3D Cell Culture [2]: Not Reached

O=P1(N(CCCl)CCCl)NCCCO1 (centres unmarked) [Cyclosphosphamide]
% Cell Death [1]: 32%

CN(C)/N=N/c1[nH]cnc1C(N)=O [Dacarbazine]
% Cell Death [1]: 32%

O=C(O)C(Cl)Cl [Dichloracetate]
Calculated IC50 PD3D Cell Culture [2]: Not Reached

CC(=O)O[C@@]12CO[C@@H]1C[C@H](O)[C@@]1(C)C(=O)[C@H](O)C3=C(C)[C@@H](OC(=O)[C@H](O)[C@@H](NC(=O)OC(C)(C)C)c4ccccc4)C[C@@](O)([C@@H](OC(=O)c4ccccc4)[C@H]21)C3(C)C [Docetaxel]
% Cell Death [1]: No Response

COc1cccc2c1C(=O)c1c(O)c3c(c(O)c1C2=O)C[C@@](O)(C(=O)CO)C[C@@H]3O[C@H]1C[C@H](N)[C@H](O)[C@H](C)O1 [Doxorubicin]
% Cell Death [1]: 39%

COc1cc([C@@H]2c3cc4c(cc3[C@@H](O[C@@H]3O[C@@H]5CO[C@@H](C)O[C@H]5[C@H](O)[C@H]3O)[C@H]3COC(=O)[C@H]23)OCO4)cc(OC)c1O [Etoposide]
% Cell Death [1]: 33%

Nc1ccn([C@@H]2O[C@H](CO)[C@@H](O)C2(F)F)c(=O)n1 [Gemcitabine]
% Cell Death [1]: 56%

N[C@@H](CCC(=O)N[C@@H](CS)C(=O)NCC(=O)O)C(=O)O [Glutathione]
Calculated IC50 PD3D Cell Culture [2]: Not Reached

CCN(CCO)CCCC(C)Nc1ccnc2cc(Cl)ccc12 (centres unmarked) [Hydroxychloroquine]
Calculated IC50 PD3D Cell Culture [2]: Not Reached

CCc1c2c(nc3ccc(OC(=O)N4CCC(N5CCCCC5)CC4)cc13)-c1cc3c(c(=O)n1C2)COC(=O)[C@]3(O)CC [Irinotecan]
% Cell Death [1]: 51%

COc1cc2nccc(Oc3ccc(NC(=O)NC4CC4)c(Cl)c3)c2cc1C(N)=O [Lenvatinib]
Calculated IC50 PD3D Cell Culture [2]: Not Reached

N[C@@H](Cc1ccc(N(CCCl)CCCl)cc1)C(=O)O [Melphalan]
% Cell Death [1]: 40%

CN(C)C(=N)N=C(N)N [Metformin]
Calculated IC50 PD3D Cell Culture [2]: Not Reached

O=C1c2c(O)ccc(O)c2C(=O)c2c(NCCNCCO)ccc(NCCNCCO)c21 [Mitoxantrone]
% Cell Death [1]: 50%

O=C(c1cc(Cc2n[nH]c(=O)c3ccccc23)ccc1F)N1CCN(C(=O)C2CC2)CC1 [Olaparib]
Calculated IC50 PD3D Cell Culture [2]: Not Reached

CC(=O)O[C@H]1C(=O)[C@@]2(C)[C@H]([C@H](OC(=O)c3ccccc3)[C@]3(O)C[C@H](OC(=O)[C@H](O)[C@@H](NC(=O)c4ccccc4)c4ccccc4)C(C)=C1C3(C)C)[C@]1(OC(C)=O)CO[C@@H]1C[C@@H]2O [Paclitaxel]
% Cell Death [1]: 39%
effect on tumor volume / tumor growth [9]: ineffective in reducing tumor growth
effect on tumor volume / tumor growth ([9]; listed as paclitaxel): in essence ineffective
viability ([10]; 4 nm/mL): about 89%
viability ([10]; 20 nm/mL): about 57%
change in viability on increasing the dose by 5× ([10]; paclitaxel alone 4 to 20 nm/mL): 32%
overall kill rate ([10]; paclitaxel alone, highest dose (20 nm/mL)): less than 50%
viability ([11]; paclitaxel alone 4 nm/mL): 45%
change in viability on adding 5× more paclitaxel ([11]; paclitaxel alone 4 to 20 nm/mL): about 3%
viability ([11]; paclitaxel alone, 5× more (20 nm/mL)): 42%

Nc1nc2[nH]cc(CCc3ccc(C(=O)N[C@@H](CCC(=O)O)C(=O)O)cc3)c2c(=O)[nH]1 [Pemetrexed]
% Cell Death [1]: No Response
Calculated IC50 PD3D Cell Culture [2]: Not Reached

Nc1cccc2c1C(=O)N(C1CCC(=O)NC1=O)C2=O (centres unmarked) [Pomalidomide]
Calculated IC50 PD3D Cell Culture [2]: Not Reached

CCN(CC)CCNC(=O)c1c(C)[nH]c(/C=C2\C(=O)Nc3ccc(F)cc32)c1C [Sunitnib]
Calculated IC50 PD3D Cell Culture [2]: Not Reached

Cn1nnc2c(C(N)=O)ncn2c1=O [Temozolomide]
% Cell Death [1]: 40%

COc1cc2c(cc1O)CCN[C@]21CS[C@@H]2c3c(OC(C)=O)c(C)c4c(c3[C@H](COC1=O)N1[C@@H]2[C@H]2c3c(cc(C)c(OC)c3O)C[C@@H]([C@@H]1O)N2C)OCO4 [Trabectedine]
% Cell Death [1]: 32%

CC[C@]1(O)C[C@@H]2CN(CCc3c([nH]c4ccccc34)[C@@](C(=O)OC)(c3cc4c(cc3OC)N(C)[C@H]3[C@@](O)(C(=O)OC)[C@H](OC(C)=O)[C@]5(CC)C=CCN6CC[C@]43[C@@H]65)C2)C1 [Vinblastine]
% Cell Death [1]: 38%

CCC1=C[C@@H]2CN(C1)Cc1c([nH]c3ccccc13)[C@@](C(=O)OC)(c1cc3c(cc1OC)N(C)[C@H]1[C@@](O)(C(=O)OC)[C@H](OC(C)=O)[C@]4(CC)C=CCN5CC[C@]31[C@@H]54)C2 [Vinorelbine]
% Cell Death [1]: 45%

COc1cccc2c1C(=O)c1c(O)c3c(c(O)c1C2=O)C[C@@](O)(C(=O)CO)C[C@@H]3O[C@H]1C[C@H](N)[C@@H](O)[C@H](C)O1 [epirubicin]
% Cell Death [1]: No Response

C=C1C[C@@H]2CC[C@@]34C[C@H]5O[C@H]6[C@@H](O3)[C@H]3O[C@H](CC[C@@H]3O[C@H]6[C@H]5O4)CC(=O)C[C@@H]3[C@@H](OC)[C@@H](C[C@H](O)CN)O[C@H]3C[C@H]3O[C@@H](CC[C@@H]1O2)C[C@@H](C)C3=C [eribulin]
% Cell Death [1]: No Response

O=P1(NCCCl)OCCCN1CCCl (centres unmarked) [ifosfamide]
% Cell Death [1]: No Response

CN(Cc1cnc2nc(N)nc(N)c2n1)c1ccc(C(=O)N[C@@H](CCC(=O)O)C(=O)O)cc1 [methotrexate]
% Cell Death [1]: No Response

CO[C@@]12[C@H](COC(N)=O)C3=C(C(=O)C(C)=C(N)C3=O)N1C[C@@H]1N[C@@H]12 [mitomycin]
% Cell Death [1]: No Response

O=C1[O][Pt]2([NH][C@@H]3CCCC[C@H]3[NH]2)[O]C1=O [oxaliplatin]
% Cell Death [1]: No Response

CC[C@]1(O)C[C@H]2CN(CCc3c([nH]c4ccccc34)[C@@](C(=O)OC)(c3cc4c(cc3OC)N(C=O)[C@H]3[C@@](O)(C(=O)OC)[C@H](OC(C)=O)[C@]5(CC)C=CCN6CC[C@]43[C@@H]65)C2)C1 [vincristine]
% Cell Death [1]: No Response

Bevacizumab
Calculated IC50 PD3D Cell Culture [2]: Not Reached

Bleomycin
% Cell Death [1]: 53%

gemcitabine/capecitabine [GemCap]
response of the patient's organoid [1]: partial response
